Patent US11559538B2, “Substituted 1,2-oxaborolan-2-ols as PDE4 inhibitors” (Pfizer Inc., priority 2018, dated 2023)
Read-outs that look alike come from different tables or passages of the source.

Tests used:
IL-4 = assay: Cytokine assay: IL-4 release from PHA-L stimulated human PBMCs; assay type: cell-based; conditions: read-out: IL4 IC50
Summary of the method: (§1)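 Human peripheral blood mononuclear cells are pre-exposed to test compound, then activated with the T-cell mitogen PHA-L (3.5 μg/mL in the well). After two days of culture at 37° C, supernatant cytokine levels are quantified by HTRF. Potency is expressed as IC50.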

IFNγ = assay: Cytokine assay: IFNγ release from PHA-L stimulated human PBMCs; assay type: cell-based
Summary of the method: as §1

[1] = target: PDE4B (aa 152-484, Uniprot ID Q07343) (Homo sapiens (Human), UniProt Q07343); assay: PDE4 SPA assay (scintillation proximity assay); assay type: biochemical; conditions: read-out: PDE4B2 IC50
Summary of the method: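 Scintillation proximity read-out after a 30 min room-temperature reaction of ~81.6 pM PDE4B catalytic fragment (aa 152-484) with 1 μM tritiated/unlabeled cAMP, pH 7.5 Tris buffer with MgCl2 and Brij 35. Compound given ~10 min beforehand, 4-fold dilutions, ~2% DMSO; IC50 from four-parameter logistic curve.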

IL-13 = assay: Cytokine assay: IL-13 release from PHA-L stimulated human PBMCs; assay type: cell-based; conditions: read-out: IL13 IC50
Summary of the method: as §1

PDE4B (aa 152-484, Uniprot ID Q07343), sequence (Q07343 324-656): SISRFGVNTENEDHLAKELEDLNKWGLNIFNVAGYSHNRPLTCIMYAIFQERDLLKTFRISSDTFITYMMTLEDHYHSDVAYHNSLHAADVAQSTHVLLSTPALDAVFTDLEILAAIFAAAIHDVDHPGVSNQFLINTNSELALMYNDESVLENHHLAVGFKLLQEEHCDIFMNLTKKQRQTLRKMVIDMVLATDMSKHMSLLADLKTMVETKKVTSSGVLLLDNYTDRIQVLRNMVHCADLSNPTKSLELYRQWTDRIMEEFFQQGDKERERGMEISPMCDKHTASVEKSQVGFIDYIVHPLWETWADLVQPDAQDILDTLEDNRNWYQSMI

Compound | IC50 (IL-4; Homo sapiens, PBMC) [nM] | IC50 (IFNγ; Homo sapiens, PBMC) [nM] | IC50 [1] [nM] | IC50 (IL-13; Homo sapiens, PBMC) [nM] | IC50 (IL-4) [nM] | IC50 (IFNγ) [nM] | IC50 (IL-13) [nM]
CCOc1cc(-c2cncc(C3=CB(O)OC3)c2)ccc1OC [Example 229, 4-(5-(3-ethoxy-4-methoxyphenyl)pyridin-3-yl)-1,2-oxaborol-2(5H)-ol] | 195 | 2.9 | 2.64 | 2730 |  |  | 
COc1ccc(-c2cccc(C3COB(O)C3)c2)cc1OC(C)C (stereo not shown) [Example 75, 4-(3′-isopropoxy-4′-methoxy-[1,1′-biphenyl]-3-yl)-1,2-oxaborolan-2-ol] | 125 | 5.98 | 4.52 | 395 |  |  | 
CCOc1cc(-c2nc(C3COB(O)C3)ns2)ccc1OC (stereo not shown) [Example 72, 4-(5-(3-ethoxy-4-methoxyphenyl)-1,2,4-thiadiazol-3-yl)-1,2-oxaborolan-2-ol] | 103 | 6.21 | 0.85 | 375 |  |  | 
CCOc1cc(-c2cncc(C3COB(O)C3)c2)c(C)cc1OC (stereo not shown) [Example 69, 4-(5-(5-ethoxy-4-methoxy-2-methylphenyl)pyridin-3-yl)-1,2-oxaborolan-2-ol] | 6.51 | 3.84 | 4.39 | 373 |  |  | 
COc1ccc(-c2cccc(C3COB(O)C3)c2)cc1OC1CCCC1 (stereo not shown) [Example 130, 4-(3′-(cyclopentyloxy)-4′-methoxy-[1,1′-biphenyl]-3-yl)-1,2-oxaborolan-2-ol] | 120 | 3.21 | 1.6 | 587 |  |  | 
COc1ccc(-c2cncc(C3COB(O)C3)c2)cc1OC1CCSC1 (stereo not shown) [Example 80, 4-(5-(4-methoxy-3-((tetrahydrothiophen-3-yl)oxy)phenyl)pyridin-3-yl)-1,2-oxaborolan-2-ol] |  |  | 1.34 |  | 19.8 | 4.62 | 2150
COc1cnc(-c2cccc(C3COB(O)C3)c2)nc1OC (single isomer, unassigned) [Example 123, 4-(3-(4,5-dimethoxypyrimidin-2-yl)phenyl)-1,2-oxaborolan-2-ol] | 34.1 | 3.58 | 3.11 | 1640 |  |  | 
CCCOc1cc(-c2nc(OC)cc(C3COB(O)C3)n2)ccc1OC (stereo not shown) [Example 224, 4-(6-methoxy-2-(4-methoxy-3-propoxphenyl)pyrimidin-4-yl)-1,2-oxaborolan-2-ol] | 8.94 | 8.12 | 2.17 | 2490 |  |  | 
CCOc1c(OC)ccc(-c2cncc(C3COB(O)C3)c2)c1F (stereo not shown) [Example 73, 4-(5-(3-ethoxy-2-fluoro-4-methoxyphenyl)pyridin-3-yl)-1,2-oxaborolan-2-ol] | 49.9 | 1.66 | 2.19 | 384 |  |  | 
CCCOc1cc(-c2cncc(C3COB(O)C3)n2)ccc1OC (stereo not shown) [Example 115, 4-(6-(4-methoxy-3-propoxyphenyl)pyrazin-2-yl)-1,2-oxaborolan-2-ol] | 38.4 | 1.68 | 1.1 | 509 |  |  | 
COc1ccc(-c2cncc(C3COB(O)C3)c2)cc1OCCO (single isomer, unassigned) [Example 8, 4-(5-(3-(2-hydroxyethoxy)-4-methoxyphenyl)pyridin-3-yl)-1,2-oxaborolan-2-ol] |  |  | 2.42 |  | 0.76 | 1.2 | 25
CCOc1c(OC)ccc(-c2cccc(C3COB(O)C3)n2)c1F (stereo not shown) [Example 199, 4-(6-(3-ethoxy-2-fluoro-4-methoxyphenyl)pyridin-2-yl)-1,2-oxaborolan-2-ol] | 90.4 | 4.55 | 10.4 | 1590 |  |  | 
CCOc1cc(-c2cccc(C3COB(O)C3)n2)ccc1OC (stereo not shown) [Example 233, 4-(6-(3-ethoxy-4-methoxyphenyl)pyridin-2-yl)-1,2-oxaborolan-2-ol] | 104 | 2.94 | 8.74 | 508 |  |  | 
CCOc1nc(-c2cccc(C3=CB(O)OC3)c2)ccc1OC [Example 120, 4-(3-(6-ethoxy-5-methoxypyridin-2-yl)phenyl)-1,2-oxaborol-2(5H)-ol] | 171 | 7.85 | 1.11 | 2090 |  |  | 
CCCOc1cc(-c2cncc([C@H]3COB(O)C3)c2)ccc1OC [Example 5, (S)-4-(5-(4-methoxy-3-propoxyphenyl)pyridin-3-yl)-1,2-oxaborolan-2-ol] | 36.3 | 4.04 | 0.93 | 2390 |  |  | 
CCCOc1cc(-c2cncc(C3COB(O)C3)c2)ncc1OC (stereo not shown) [Example 178] | 1.81 | 0.91 | 2.02 | 1280 |  |  | 

Compound | IC50 (IL-4; Homo sapiens, PBMC) [nM] | IC50 (IFNγ; Homo sapiens, PBMC) [nM] | IC50 [1] [nM] | IC50 (IL-13; Homo sapiens, PBMC) [nM] | IC50 (IL-4) [nM] | IC50 (IFNγ) [nM] | IC50 (IL-13) [nM]
COc1cc(-c2cccc(C3COB(O)C3)c2)ccc1SC (stereo not shown) [Example 206, 4-(3′-methoxy-4′-(methylthio)-[1,1′-biphenyl]-3-yl)-1,2-oxaborolan-2-ol] | 113 | 27.8 | 2.65 | 1790 |  |  | 
CCOc1cc(-c2cc(C3COB(O)C3)cnc2C)ccc1OC (stereo not shown) [Example 52, 4-(5-(3-ethoxy-4-methoxyphenyl)-6-methylpyridin-3-yl)-1,2-oxaborolan-2-ol] | 14.6 | 5.74 | 9.25 | 2610 |  |  | 
CCCOc1cc(-c2nc(C3COB(O)C3)ns2)ccc1OC (stereo not shown) [Example 147, 4-(5-(4-methoxy-3-propoxyphenyl)-1,2,4-thiadiazol-3-yl)-1,2-oxaborolan-2-ol] | 2.69 | 1.57 | 0.44 | 1260 |  |  | 
CCCOc1cc(-c2nc(C)cc(C3COB(O)C3)n2)ccc1OC (single isomer, unassigned) [Example 22, 4-(2-(4-methoxy-3-propoxyphenyl)-6-methylpyrimidin-4-yl)-1,2-oxaborolan-2-ol] | 1.75 | 1.43 | 7.89 | 257 |  |  | 
CCOc1cc(-c2cncc(C3COB(O)C3)c2C)c(F)cc1OC (single isomer, unassigned) [Example 142, 4-(5-(5-ethoxy-2-fluoro-4-methoxyphenyl)-4-methylpyridin-3-yl)-1,2-oxaborolan-2-ol] | 4.5 | 2.04 | 2.53 | 1040 |  |  | 
CCCOc1cc(-c2ccc(F)c(C3COB(O)C3)n2)ccc1OC (single isomer, unassigned; enantiomer 1) [Example 230, 4-(3-fluoro-6-(4-methoxy-3-propoxyphenyl)pyridin-2-yl)-1,2-oxaborolan-2-ol, enantiomer 1] | 141 | 26.5 | 17.1 | 2780 |  |  | 
CCOc1cc(-c2nc(C3COB(O)C3)cs2)c(F)cc1OC (single isomer, unassigned) [Example 92, 4-(2-(5-ethoxy-2-fluoro-4-methoxyphenyl)thiazol-4-yl)-1,2-oxaborolan-2-ol] | 3.36 | 2.7 | 1.79 | 947 |  |  | 
CCCOc1cc(-c2cncc(C3COB(O)C3)c2)ccc1OCC (single isomer, unassigned) [Example 105, 4-(5-(4-ethoxy-3-propoxyphenyl)pyridin-3-yl)-1,2-oxaborolan-2-ol] | 14.2 | 5.46 | 3.2 |  |  |  | 490
CCCOc1c(OC)ccc(-c2cncc(C3COB(O)C3)n2)c1F (stereo not shown) [Example 215, 4-(6-(2-fluoro-4-methoxy-3-propoxyphenyl)pyrazin-2-yl)-1,2-oxaborolan-2-ol] | 62.7 | 2.18 | 2.58 | 2050 |  |  | 
CCOc1cc(-c2cncc(C3COB(O)C3)c2C)c(F)cc1OC (stereo not shown) [Example 141, 4-(5-(5-ethoxy-2-fluoro-4-methoxyphenyl)-4-methylpyridin-3-yl)-1,2-oxaborolan-2-ol] | 3.35 | 2.24 | 0.95 | 701 |  |  | 
CCOc1ccc(-c2cncc(C3COB(O)C3)c2)cc1OC (single isomer, unassigned; enantiomer2) [Example 188, 4-(5-(4-ethoxy-3-methoxyphenyl)pyridin-3-yl)-1,2-oxaborolan-2-ol, enantiomer2] | 135 | 12.2 | 12.5 | 1530 |  |  | 
CCOc1c(OC)ccc(-c2cncc(C3COB(O)C3)c2)c1C(F)(F)F (stereo not shown) [Example 94, 4-(5-(3-ethoxy-4-methoxy-2-(trifluoromethyl)phenyl)pyridin-3-yl)-1,2-oxaborolan-2-ol] | 9.58 | 3.88 | 12.5 | 606 |  |  | 
CCCOc1nc(-c2cncc(C3COB(O)C3)c2)c(F)cc1OC (stereo not shown) [Example 48, 4-(3-fluoro-5-methoxy-6-propoxy-[2,3′-bipyridin]-5′-yl)-1,2-oxaborolan-2-ol] | 0.82 | 0.98 | 0.12 | 252 |  |  | 
COc1ccc(-c2cccc(C3=CB(O)OC3)c2)cc1OC1CCCC1 [Example 129, 4-(3′-(cyclopentyloxy)-4′-methoxy-[1,1′-biphenyl]-3-yl)-1,2-oxaborol-2(5H)-ol] | 34.5 | 24.6 | 4.04 | 3340 |  |  | 
CCOc1ccc(-c2cncc(C3COB(O)C3)c2)c(F)c1OC (stereo not shown) [Example 217, 4-(5-(4-ethoxy-2-fluoro-3-methoxyphenyl)pyridin-3-yl)-1,2-oxaborolan-2-ol] | 20.5 | 10.3 | 5.5 | 2070 |  |  | 
